The source of these data is ChEMBL document CHEMBL1144201, “Design and synthesis of a series of meta aniline-based LFA-1 ICAM inhibitors” (Bioorg Med Chem Lett, 2008).

Data set [1] can be described thus: in vivo. Particulars: rat, 1 mg/kg.
The nature of data set [2]: in vivo. Particulars: rat, po, 1 mg/kg.
Data set [3] is described as follows: in vivo. Conditions: rat, 1 mg/kg. This is another data set of the same source.

As a reminder, the half-life is the time needed for the level to fall by half in the phase considered. One may read the bioavailability as dose-corrected exposure relative to a reference, in per cent. Low values mean poor availability, high ones good availability. As usually defined, the clearance is a measure of how efficiently the substance is removed, as volume per time. A low value points to inefficient removal.

SMILES strings stand for the structures.

As for `O=C(/C=C/c1ccc(Sc2cccc(N[C@H]3CC[C@@H](C(=O)O)CC3)c2)c(C(F)(F)F)c1C(F)(F)F)N1CCOCC1`, the half-life in data set [1] is 1.8 h. In data set [2], this compound came in with a bioavailability of 13%. In addition, in data set [3], the clearance was 8.3 mL/min/kg.

For the compound `Nc1cccc(Sc2ccc(/C=C/C(=O)N3CCOCC3)c(C(F)(F)F)c2C(F)(F)F)c1`, the half-life in data set [1] is 4.5 h. Moreover, the bioavailability in data set [2] was found to be 27%.

Compound `CC(C)N1CCC(Nc2cccc(Sc3ccc(/C=C/C(=O)N4CCOCC4)c(C(F)(F)F)c3C(F)(F)F)c2)CC1` gave a half-life in data set [1] of 7 h. For the same compound, in data set [2], the bioavailability turned out to be 32%.
